Starred links: 1 amine or outer side, 2 acyl side, 3 side chain; linkers in the order of their positions; H or OH if unused. Non-standard residues stand in square brackets, D forms with d. Residues, ends and D or L forms follow the SMILES beside them. Groups on a side chain read outwards from the residue. *: point of attachment. X5 = CCCCCCCCCCCCCCCC(=O)N[C@@H](CCC(=O)N[C@@H](CCC(=O)N[C@@H](CCC(=O)NCCCOCCOCCOCCCNC(=O)CCC(=O)NCCCOCCOCCOCCCNC(=O)CCC(=O)NCCCOCCOCCOCCCNC(=O)CCC(=O)NCCCOCCOCCOCCCN*)C(=O)O)C(=O)O)C(=O)O; X3 = CCCCCCCCCCCCCCCCCC(=O)N[C@@H](CCC(=O)N[C@@H](CCC(=O)N[C@@H](CCC(=O)NCCCOCCOCCOCCCNC(=O)CCC(=O)NCCCOCCOCCOCCCNC(=O)CCC(=O)NCCCOCCOCCOCCCN*)C(=O)O)C(=O)O)C(=O)O; X1 = CCCCCCCCCCCCCCCC(=O)N[C@@H](CCC(=O)N[C@@H](CCC(=O)N[C@@H](CCC(=O)NCCCOCCOCCOCCCNC(=O)CCC(=O)NCCCOCCOCCOCCCNC(=O)CCC(=O)NCCCOCCOCCOCCCN*)C(=O)O)C(=O)O)C(=O)O; γGlu = O=C(O)[C@H](CCC(=O)[*:2])N[*:1]; Palmitoyl = CCCCCCCCCCCCCCCC(=O)*; Cit = NC(=O)NCCC[C@H](N)C(=O)O; Suc = O=C(CCC(=O)[*:2])[*:1]; αMeK = C[C@](N)(CCCCN)C(=O)O; AEEA = NCCOCCOCC(=O)O; Aib = CC(C)(N)C(=O)O
Molecular target: T1, RXFP1 (Homo sapiens, UniProt Q9HBX9)
T1 construct: OVCAR5 cells expressing endogenous RXFP1; endogenous in cells; host or cells: OVCAR5
T1 sequence (Q9HBX9 1-757): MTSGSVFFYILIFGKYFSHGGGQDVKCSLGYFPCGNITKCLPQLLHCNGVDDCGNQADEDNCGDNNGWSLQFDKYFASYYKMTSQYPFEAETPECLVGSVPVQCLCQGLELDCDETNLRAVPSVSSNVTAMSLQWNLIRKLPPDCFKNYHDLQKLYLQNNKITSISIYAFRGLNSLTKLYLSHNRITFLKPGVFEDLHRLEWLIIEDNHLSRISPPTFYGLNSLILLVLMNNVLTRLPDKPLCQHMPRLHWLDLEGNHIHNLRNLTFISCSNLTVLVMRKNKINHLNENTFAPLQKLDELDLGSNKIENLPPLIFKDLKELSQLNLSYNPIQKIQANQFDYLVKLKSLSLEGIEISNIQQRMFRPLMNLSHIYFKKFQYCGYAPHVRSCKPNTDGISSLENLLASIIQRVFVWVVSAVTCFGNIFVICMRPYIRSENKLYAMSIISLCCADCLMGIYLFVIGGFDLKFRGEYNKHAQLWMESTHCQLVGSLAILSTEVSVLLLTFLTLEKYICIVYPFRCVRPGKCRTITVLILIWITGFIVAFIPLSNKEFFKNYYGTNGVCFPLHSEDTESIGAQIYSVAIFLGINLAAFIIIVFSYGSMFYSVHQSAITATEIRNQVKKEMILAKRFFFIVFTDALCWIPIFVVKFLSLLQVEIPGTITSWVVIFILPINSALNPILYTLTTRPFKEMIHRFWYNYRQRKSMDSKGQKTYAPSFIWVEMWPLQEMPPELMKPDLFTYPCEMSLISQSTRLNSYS
Test: OVCAR5 cAMP assay (HTRF)
Type: cell-based
Conditions: for EC50: OVCAR 5 cells expressing endogenous RXFP1, cAMP readout; for Emax: OVCAR 5 cells, maximal cAMP relative to H2-relaxin
How it was run: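 Endogenous RXFP1 in OVCAR5 cells, pretreated 40 min at 37° C with 1 mM IBMX, then exposed to increasing peptide concentrations in serum-free medium for 30 min at 37° C. cAMP read by HTRF; EC50 by variable-slope sigmoidal fit, Emax as % of H2-relaxin maximal cAMP in same run.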

Row | EC50 [nM] | Emax [%] | SMILES
1 | 0.11 | 98 | CCCCCCCCCCCCCCCC(=O)N[C@@H](CCC(=O)N[C@@H](CCC(=O)N[C@@H](CCC(=O)NCCCOCCOCCOCCCNC(=O)CCC(=O)NCCCOCCOCCOCCCNC(=O)CCC(=O)NCCCOCCOCCOCCCNC(=O)CCC(=O)NCCCOCCOCCOCCCNC(=O)CCC(=O)NCCCC[C@H](NC(=O)CNC(=O)[C@H](CCC(=O)O)NC(=O)C(C)(C)NC(=O)C(C)(C)NC(=O)[C@@H](NC(=O)[C@H](CCCCNC(C)=O)NC(=O)[C@H](C)NC(=O)[C@H](CCCNC(=N)N)NC(=O)[C@@H](NC(=O)[C@H](CCCNC(=N)N)NC(=O)[C@H](CCC(=O)O)NC(=O)[C@H](CCCNC(=N)N)NC(=O)CNC(=O)[C@H](CCC(=O)O)NC(=O)[C@H](CC(C)C)NC(C)=O)C(C)C)[C@@H](C)CC)C(=O)N[C@@H](CO)C(=O)N[C@H](C(=O)N[C@@H](Cc1ccccc1)C(=O)N[C@@H](CO)C(=O)NC(C)(C)C(=O)N[C@@H](CCCNC(=N)N)C(=O)N[C@@H](CCCNC(=N)N)C(=O)N[C@@H](CCCCNC(C)=O)C(N)=O)[C@@H](C)O)C(=O)O)C(=O)O)C(=O)O [compound 77] (Ac-LEGRERVRAK(Ac)I[Aib][Aib]EGK([Suc-X5])STFS[Aib]RRK(Ac)-NH2)
2 | 0.1 | 97 | CCCCCCCCCCCCCCCCCC(=O)N[C@@H](CCC(=O)N[C@@H](CCC(=O)N[C@@H](CCC(=O)NCCCOCCOCCOCCCNC(=O)CCC(=O)NCCCOCCOCCOCCCNC(=O)CCC(=O)NCCCOCCOCCOCCCNC(=O)CCC(=O)NCCCC[C@H](NC(=O)CNC(=O)[C@H](CCC(=O)O)NC(=O)C(C)(C)NC(=O)C(C)(C)NC(=O)[C@@H](NC(=O)[C@H](CCCCNC(C)=O)NC(=O)[C@H](C)NC(=O)[C@H](CCCNC(=N)N)NC(=O)[C@@H](NC(=O)[C@H](CCCCN)NC(=O)[C@H](CCC(=O)O)NC(=O)[C@H](CCCNC(=N)N)NC(=O)CNC(=O)[C@H](CCC(=O)O)NC(=O)[C@H](CC(C)C)NC(C)=O)C(C)C)[C@@H](C)CC)C(=O)N[C@@H](CO)C(=O)N[C@H](C(=O)N[C@@H](Cc1ccccc1)C(=O)N[C@@H](CO)C(=O)NC(C)(C)C(=O)N[C@@H](CCCNC(=N)N)C(=O)N[C@@H](CCCCN)C(=O)N[C@@H](CCCCNC(C)=O)C(N)=O)[C@@H](C)O)C(=O)O)C(=O)O)C(=O)O [compound 61] (Ac-LEGREKVRAK(Ac)I[Aib][Aib]EGK([Suc-X3])STFS[Aib]RKK(Ac)-NH2)
3 | 0.52 | 95 | CCCCCCCCCCCCCCCC(=O)N[C@@H](CCC(=O)N[C@@H](CCC(=O)N[C@@H](CCC(=O)NCCCOCCOCCOCCCNC(=O)CCC(=O)NCCCOCCOCCOCCCNC(=O)CCC(=O)NCCCOCCOCCOCCCNC(=O)CCC(=O)NCCCC[C@H](NC(=O)CNC(=O)[C@H](CCC(=O)O)NC(=O)C(C)(C)NC(=O)C(C)(C)NC(=O)[C@@H](NC(=O)[C@H](CCCCNC(C)=O)NC(=O)[C@H](C)NC(=O)[C@H](CCCNC(=N)N)NC(=O)[C@@H](NC(=O)[C@H](CCCCN)NC(=O)[C@H](CCC(=O)O)NC(=O)[C@H](CCCNC(=N)N)NC(=O)CNC(=O)[C@H](CCC(=O)O)NC(=O)[C@H](CC(C)C)NC(C)=O)C(C)C)[C@@H](C)CC)C(=O)N[C@@H](CO)C(=O)N[C@@H](CCCNC(=N)N)C(=O)N[C@@H](Cc1c[nH]c2ccccc12)C(=O)N[C@@H](CO)C(=O)NC(C)(C)C(=O)N[C@@H](CCCNC(=N)N)C(=O)N[C@@H](CCCCN)C(=O)N[C@@H](CCCCNC(C)=O)C(N)=O)C(=O)O)C(=O)O)C(=O)O [compound 64] (Ac-LEGREKVRAK(Ac)I[Aib][Aib]EGK([Suc-X1])SRWS[Aib]RKK(Ac)-NH2)

Continued, compound first:

Row | SMILES | EC50 [nM] | Emax [%]
4 | CCCCCCCCCCCCCCCC(=O)N[C@@H](CCC(=O)N[C@@H](CCC(=O)N[C@@H](CCC(=O)NCCOCCOCC(=O)NCCOCCOCC(=O)NCCOCCOCC(=O)NCCOCCOCC(=O)NCCCC[C@H](NC(=O)CNC(=O)[C@H](CCC(=O)O)NC(=O)C(C)(C)NC(=O)C(C)(C)NC(=O)[C@@H](NC(=O)[C@H](CCCCNC(C)=O)NC(=O)[C@H](C)NC(=O)[C@H](CCCNC(=N)N)NC(=O)[C@@H](NC(=O)[C@H](CCCCN)NC(=O)[C@H](CCC(=O)O)NC(=O)[C@H](CCCNC(=N)N)NC(=O)CNC(=O)[C@H](CCC(=O)O)NC(=O)[C@H](CC(C)C)NC(C)=O)C(C)C)[C@@H](C)CC)C(=O)N[C@@H](CO)C(=O)N[C@H](C(=O)N[C@@H](Cc1ccccc1)C(=O)N[C@@H](CO)C(=O)N[C@@](C)(CCCCN)C(=O)N[C@@H](CCCNC(=N)N)C(=O)N[C@@H](C)C(=O)N[C@@H](CCCCNC(C)=O)C(N)=O)[C@@H](C)O)C(=O)O)C(=O)O)C(=O)O [compound 8] (Ac-LEGREKVRAK(Ac)I[Aib][Aib]EGK([AEEA-AEEA-AEEA-AEEA-γGlu-γGlu-γGlu-Palmitoyl])STFS[αMeK]RAK(Ac)-NH2) | 1.86 | 92
5 | CCCCCCCCCCCCCCCC(=O)N[C@@H](CCC(=O)N[C@@H](CCC(=O)N[C@@H](CCC(=O)NCCCOCCOCCOCCCNC(=O)CCC(=O)NCCCOCCOCCOCCCNC(=O)CCC(=O)NCCCOCCOCCOCCCNC(=O)CCC(=O)NCCCC[C@H](NC(=O)CNC(=O)[C@H](CCC(=O)O)NC(=O)C(C)(C)NC(=O)C(C)(C)NC(=O)[C@@H](NC(=O)[C@H](CCCNC(N)=O)NC(=O)[C@H](C)NC(=O)[C@H](CCCNC(=N)N)NC(=O)[C@@H](NC(=O)[C@H](CCCCN)NC(=O)[C@H](CCC(=O)O)NC(=O)[C@H](CCCNC(=N)N)NC(=O)CNC(=O)[C@H](CCC(=O)O)NC(=O)[C@H](CC(C)C)NC(C)=O)C(C)C)[C@@H](C)CC)C(=O)N[C@@H](CO)C(=O)N[C@H](C(=O)N[C@@H](Cc1ccccc1)C(=O)N[C@@H](CO)C(=O)N[C@@](C)(CCCCN)C(=O)N[C@@H](CCCNC(=N)N)C(=O)N[C@@H](C)C(=O)N[C@@H](CCCCNC(C)=O)C(N)=O)[C@@H](C)O)C(=O)O)C(=O)O)C(=O)O [compound 12] (Ac-LEGREKVRA[Cit]I[Aib][Aib]EGK([Suc-X1])STFS[αMeK]RAK(Ac)-NH2) | 0.93 | 90
6 | CCCCCCCCCCCCCCCC(=O)N[C@@H](CCC(=O)N[C@@H](CCC(=O)N[C@@H](CCC(=O)NCCCOCCOCCOCCCNC(=O)CCC(=O)NCCCOCCOCCOCCCNC(=O)CCC(=O)NCCCOCCOCCOCCCNC(=O)CCC(=O)NCCCC[C@H](NC(=O)CNC(=O)[C@H](CCC(=O)O)NC(=O)C(C)(C)NC(=O)C(C)(C)NC(=O)[C@@H](NC(=O)[C@H](CCCCNC(C)=O)NC(=O)[C@H](C)NC(=O)[C@H](CCCNC(=N)N)NC(=O)[C@@H](NC(=O)[C@H](CCCCN)NC(=O)[C@H](CCC(=O)O)NC(=O)[C@H](CCCNC(=N)N)NC(=O)CNC(=O)[C@H](CCC(=O)O)NC(=O)[C@H](CC(C)C)NC(C)=O)C(C)C)[C@@H](C)CC)C(=O)N[C@@H](CO)C(=O)N[C@@H](CCCCN)C(=O)N[C@@H](Cc1c[nH]c2ccccc12)C(=O)N[C@@H](CO)C(=O)NC(C)(C)C(=O)N[C@@H](CCCNC(=N)N)C(=O)N[C@@H](CCCCN)C(=O)N[C@@H](CCCCNC(C)=O)C(N)=O)C(=O)O)C(=O)O)C(=O)O [compound 83] (Ac-LEGREKVRAK(Ac)I[Aib][Aib]EGK([Suc-X1])SKWS[Aib]RKK(Ac)-NH2) | 0.25 | 94
